Data: paper PMC8217170, “Phase Ib dose-escalation study of the hypoxia-modifier Myo-inositol trispyrophosphate in patients with hepatopancreatobiliary tumors” (Nature Communications, 2021)
Values joined by “and” are separate entries in the source; they are usually repeats but may differ in a detail not shown here. Equal entries are not always repeated.

Test system: target lesions of PDAC, CRLM, CCA and HCC
Assay: Morphological radiological response, MRI, RECIST 1.1
Format: in vivo, human
Design: key to RECIST1.1 response after ITPP / RECIST1.1 response after chemotherapy / RespITPP_Recist / RespChemo_Recist: CR = complete response; PR = partial response; SD = stable disease; PD = progressive disease; Lesion1_pre_DM / Lesion1_post_DM / Lesion1_chemo_DM / Lesion2_pre_DM / Lesion2_post_DM / Lesion2_chemo_DM / Lesion3_pre_DM / Lesion3_post_DM / Lesion3_chemo_DM / Lesion4_pre_DM / Lesion4_post_DM / Lesion4_chemo_DM / Lesion5_pre_DM / Lesion5_post_DM / Lesion5_chemo_DM: unit not given here
Conditions: for RECIST1.1 response after chemotherapy: chemotherapy subsequent to ITPP
Description: Radiological assessment, consisting of abdominal MRI and FDG-PET-CT, was performed before ITPP administration and after the 3-week treatment course. Where possible, radiological re-evaluation was performed after 3–6 cycles of chemotherapy. Radiological responses were evaluated according to the RECIST 1.1 criteria[56] for MRI and EORTC criteria[57] for FDG-PET-CT imaging.
Then first calculate the sum of diameters (DM) and SUV-activities of radiological target lesions before ITPP (sum_pre), after ITPP (sum_post) and after subsequent chemotherapy (sum_chemo) for assessment of morphological RECIST1.1 (diameter) and metabolical EORTC (SUV activiy) responses.
Patient 1 (dropout after only 2 infusions and subsequent death due to rapid oncological progression) is excluded for radiological assessment due to no follow up imaging available.
In a second step, we calculate percent changes (PC) of diameter and SUV activity between before ITPP, after ITPP and after chemotherapy.

[1] = after ITPP monotherapy, 27 patients assessed
[2] = after chemotherapy subsequent to ITPP, 20 patients

O=P1(O)OC2C3OP(=O)(O)OP(=O)(O)OC3C3OP(=O)(O)OP(=O)(O)OC3C2OP(=O)(O)O1 (stereo not shown) [ITPP, Myo-inositol trispyrophosphate]
Median change in target lesion size, RECIST (CCA, after ITPP): 0.88% | Median change in target lesion size, RECIST (CCA, after chemotherapy): −18.18% | Median change in target lesion size, RECIST (CRLM, after ITPP): 6.67% | Median change in target lesion size, RECIST (CRLM, after chemotherapy): −3.12% | Median change in target lesion size, RECIST (HCC, after ITPP): 0.81% | Median change in target lesion size, RECIST (HCC, after chemotherapy): −30.46% | Share of patients with SD (morphological disease stabilization) (ITPP monotherapy): 52% | Median change in target lesion size, RECIST (PDAC, after ITPP): 12.16% | Median change in target lesion size, RECIST (PDAC, after chemotherapy): 0% | Patients with progression (PD), RECIST1.1 [1]: 11 | Patients with stable disease (SD), RECIST1.1 [1]: 14 | Patients with PD, RECIST [2]: 6 | Patients with SD, RECIST [2]: 12 | Patients with partial response (PR), RECIST [2]: 2 | Share of patients with PR (after subsequent chemotherapy): 10% | Share of patients with SD (after subsequent chemotherapy): 60% | RECIST1.1 response after ITPP (individual patients, cohort 1 (1866 mg/m2)): PD and SD | RECIST1.1 response after chemotherapy (individual patients, cohort 1, 1866 mg/m2): SD | RECIST1.1 response after ITPP (individual patients, cohort 2 (3732 mg/m2)): SD and PD | RECIST1.1 response after chemotherapy (individual patients, cohort 2, 3732 mg/m2): SD | RECIST1.1 response after ITPP (individual patients, cohort 3 (5600 mg/m2)): PD and SD | RECIST1.1 response after chemotherapy (individual patients, cohort 3, 5600 mg/m2): PD and SD | RECIST1.1 response after ITPP (individual patients, cohort 4 (7000 mg/m2)): PD and SD | RECIST1.1 response after chemotherapy (individual patients, cohort 4, 7000 mg/m2): PR | RECIST1.1 response after ITPP (individual patients, cohort 5 (8750 mg/m2)): SD and PD | RECIST1.1 response after chemotherapy (individual patients, cohort 5, 8750 mg/m2): PD | RECIST1.1 response after ITPP (individual patients, cohort 6 (10500 mg/m2)): PD and SD | RECIST1.1 response after chemotherapy (individual patients, cohort 6, 10500 mg/m2): PD and PR and SD | RECIST1.1 response after ITPP (individual patients, cohort 7 (12390 mg/m2)): PD and SD | RECIST1.1 response after chemotherapy (individual patients, cohort 7, 12390 mg/m2): SD | RECIST1.1 response after ITPP (individual patients, cohort 8 (14500 mg/m2)): PD and SD | RECIST1.1 response after chemotherapy (individual patients, cohort 8, 14500 mg/m2): PD and SD | Lesion1_chemo_DM (individual patients, lesion 1, after subsequent chemotherapy): 131 and 16 and 90 and 54 and 20 and 33 and 23 and 19 and 28 and 67 and 69 and 42 and 31.4 and 10 and 36 | Lesion1_post_DM (individual patients, lesion 1, post ITPP): 113 and 27 and 110 and 305 and 107 and 74 and 26 and 50 and 49 and 25 and 20 and 30 and 70 and 58 and 81 and 43 and 44.6 and 33 and 17 and 12 and 42 and 164 | Lesion1_pre_DM (individual patients, lesion 1, pre ITPP (baseline)): 114 and 27 and 111 and 293 and 106 and 73 and 22 and 26 and 48 and 43 and 49 and 17 and 20 and 21 and 24 and 71 and 50 and 82 and 59 and 43.7 and 32 and 13 and 10 and 38 and 163 | Lesion2_chemo_DM (individual patients, lesion 2, after subsequent chemotherapy): 13 and 23 and 41 and 24 and 25 and 32 and 16 and 12 and 62 and 14 and 47 and 28.9 and 10 and 30 and 40 | Lesion2_post_DM (individual patients, lesion 2, post ITPP): 18 and 26 and 56 and 15 and 17 and 58 and 21 and 25 and 12 and 28 and 14 and 49 and 42 and 39.6 and 16 and 31 and 50 and 13 | Lesion2_pre_DM (individual patients, lesion 2, pre ITPP (baseline)): 17 and 57 and 83 and 13 and 15 and 53 and 26 and 10 and 104 and 24 and 14 and 41 and 25 and 29.7 and 16 and 46 | Lesion3_chemo_DM (individual patients, lesion 3, after subsequent chemotherapy): 39 and 16 and 10 and 9 and 24 and 7 and 32.6 and 8 and 28 | Lesion3_post_DM (individual patients, lesion 3, post ITPP): 32 and 23 and 21 and 10 and 26 and 16 and 45.1 and 30 and 14 | Lesion3_pre_DM (individual patients, lesion 3, pre ITPP (baseline)): 30 and 18 and 20 and 10 and 13 and 66 and 26.6 and 31 and 12 | Lesion4_chemo_DM (individual patients, lesion 4, after subsequent chemotherapy): 21 and 7 and 10 and 12 and 34 | Lesion4_post_DM (individual patients, lesion 4, post ITPP): 17 and 23 and 10 and 15 and 44 | Lesion4_pre_DM (individual patients, lesion 4, pre ITPP (baseline)): 21 and 20 and 10 and 22 and 14 and 38 | Lesion5_chemo_DM (individual patients, lesion 5, after subsequent chemotherapy): 10 and 18 and 9 and 11 | Lesion5_post_DM (individual patients, lesion 5, post ITPP): 16 and 18 and 12 | Lesion5_pre_DM (individual patients, lesion 5, pre ITPP (baseline)): 21 and 15 and 13 and 11 and 14 | RespITPP_Recist (individual patients, morphological response after ITPP monotherapy, RECIST): PD and SD | RespChemo_Recist (individual patients, morphological response after subsequent chemotherapy following ITPP, RECIST): PD and SD and PR | NewLesion_ITPP (individual patients, new lesion after ITPP monotherapy (Yes/No)): Yes and No | NewLesion_Chemo (individual patients, new lesion after subsequent chemotherapy following ITPP (Yes/No)): Yes and No | RespITPP_Recist (response after ITPP, RECIST, per individual patient, cohort c1, tumor c2): PD and SD
